Like-named read-outs stand apart in the source and are kept apart here.
Legend:
HEY ovarian cancer cells = assay: MTT cytotoxicity assay, HEY; format: cell-based, human; conditions: read-out: 50% Cytotoxic concentration (IC50)
Description: The sensitivity of a panel of seven human cancer cell lines to SC144 was assessed by MTT-assay. […] The sensitivity towards SC144 was time- and dose-dependent.
Cytotoxicity was assessed by a 3-(4,5-dimethylthiazol-2-yl)-2,5-diphenyltetrazolium bromide assay as previously described (Carmichael et al. (1987) Cancer Res. 47:936-42). Briefly, cells were seeded in 96-well microtiter plates (PC3 and DU145 at 5,000 cells/well and LNCaP at 10,000 cells/well; breast and ovarian cells at 4,000 cells/well) and allowed to attach. Cells were subsequently treated with a continuous exposure to the corresponding drug for 72 hours. A 3-(4,5-dimethylthiazol-2-yl)-2,5-diphenyltetrazolium bromide solution (at a final concentration of 0.5 mg/mL) was added to each well and cells were incubated for 4 hours at 37° C. After removal of the medium, DMSO was added and the absorbance was read at 570 nm. All assays were done in triplicate. The IC50 was then determined for each drug from a plot of log(drug concentration) versus percentage of cell kill.

MDA-MB-435 cells = assay: MTT assay, continuous drug exposure for 48 hours (Table 3); format: cell-based, human; conditions: for IC80: MDA-MB-435, read-out: CC80
[1] = Homo sapiens, HEY ovarian cancer cells

CC1(C)Cc2c(sc3nc(NNC(=O)c4ccccc4)[nH]c(=O)c23)CO1 [SC229]
IC50 (HEY ovarian cancer cells; [1]): 8 µM

O=C(NNC(=O)c1cc2ccccc2oc1=O)c1ccncc1 [SC266]
IC50 (HEY ovarian cancer cells; [1]): 7 µM

COc1ccc(C(=O)NNC(=O)c2cc3ccccc3oc2=O)cc1OC [SC223]
IC50 (HEY ovarian cancer cells; [1]): 4 µM

Cc1cc(C)cc(OCC(=O)NNC(=O)c2cc3ccccc3oc2=O)c1 [SC215]
IC50 (HEY ovarian cancer cells; [1]): 12 µM

O=C(CSC1=NNC2C3=C(N=C(C4CC4)N12)S1=C(CCCC1)C3)NNC(=O)C1C=CC=CO1 (centres unmarked) [SC244]
IC50 (HEY ovarian cancer cells; [1]): 15 µM

CCCCCCCC(=O)NNC(=O)c1c(O)c2ccccc2n(CC)c1=O [SC231]
IC50 (HEY ovarian cancer cells; [1]): 3 µM

O=C(CSc1nc2ccccc2c(=O)n1CC1CCCO1)NNC(=O)c1ccccc1O (centres unmarked)
IC50 (HEY ovarian cancer cells; [1]): 2 µM

COc1ccccc1C(=O)NNC(=O)c1ccc2ccccc2c1O [SC273]
IC50 (HEY ovarian cancer cells; [1]): 11 µM

CC1=C(C)C2c3nnc(SCC(=O)NNC(=O)c4ccco4)n3C(C(C)C)=NC2S1 (centres unmarked) [SC232]
IC50 (HEY ovarian cancer cells; [1]): 6 µM

O=C(NNC(=O)c1cccs1)c1ccco1 [SC251]
IC50 (HEY ovarian cancer cells; [1]): 15 µM

O=C(NNC(=O)c1c(O)c2ccccc2[nH]c1=O)c1ccccc1F [SC279]
IC50 (HEY ovarian cancer cells; [1]): 6 µM

CCCCCCC(=O)NNC(=O)c1c(O)c2ccccc2n(CCC)c1=O [SC235]
IC50 (HEY ovarian cancer cells; [1]): 7 µM

O=C(CSc1nnc(-c2ccccc2)n1Cc1ccccc1)NNC(=O)c1ccccc1O [SC241]
IC50 (HEY ovarian cancer cells; [1]): 5 µM

Cc1ccc(C(=O)NNC(=O)c2c(O)c3ccccc3[nH]c2=O)cc1 [SC278]
IC50 (HEY ovarian cancer cells; [1]): 13 µM

Cc1ccc(-n2c(SCC(=O)NNC(=O)c3ccccc3O)nnc2-c2ccccc2)cc1 [SC240]
IC50 (HEY ovarian cancer cells; [1]): 5 µM

COc1cc([C@@H]2c3cc4c(cc3[C@@H](O[C@@H]3O[C@@H]5CO[C@@H](C)O[C@H]5[C@H](O)[C@H]3O)[C@H]3COC(=O)[C@H]23)OCO4)cc(OC)c1O [Etoposide]
CC50 (MDA-MB-435 cells; Homo sapiens, MDA-MB-435): 52.5 ± 3.5 µM | IC80 (MDA-MB-435 cells; Homo sapiens): 300 ± 106 µM

CCn1c(=O)c(C(=O)NNC(=O)c2ccc(C)cc2)c(O)c2ccccc21 [SC205]
IC50 (HEY ovarian cancer cells; [1]): 6 µM

CCC(=O)NNC(=O)c1c(O)c2ccccc2[nH]c1=O [SC256]
IC50 (HEY ovarian cancer cells; [1]): 3 µM

O=C(CSc1nc2ccccc2cc1Cc1ccccc1)NNC(=O)c1ccco1 [SC222]
IC50 (HEY ovarian cancer cells; [1]): 8 µM

CC1CCN(S(=O)(=O)c2ccc(C(=O)NNC(=O)C3CC3)cc2)CC1 [SC209]
IC50 (HEY ovarian cancer cells; [1]): 8 µM

O=C(NNC(=O)c1cccs1)c1ccc2ccccc2c1 [SC262]
IC50 (HEY ovarian cancer cells; [1]): 11 µM

Cc1ccc(C(=O)NNC(=O)CSc2nnc3c4c5c(sc4nc(C4CC4)n23)CCCC5)cc1 [SC250]
IC50 (HEY ovarian cancer cells; [1]): 2 µM

CSc1nc(NNC(=O)c2ccco2)c2c3c(sc2n1)COC(C)(C)C3 [SC212]
IC50 (HEY ovarian cancer cells; HEY ovarian cancer cells): 1 µM

CCn1c(=O)c(C(=O)NNC(=O)c2ccc([N+](=O)[O-])cc2)c(O)c2ccccc21 [SC216]
IC50 (HEY ovarian cancer cells; [1]): 5 µM

CCCCCCCCCC(=O)NNC(=O)c1c(O)c2ccccc2[nH]c1=O [SC237]
IC50 (HEY ovarian cancer cells; [1]): 7 µM

CCCCCCCCC(=O)NNC(=O)c1c(O)c2ccccc2n(C)c1=O [SC233]
IC50 (HEY ovarian cancer cells; [1]): 5 µM

O=C(NNC(=O)c1cc2ccccc2oc1=O)c1ccc(S(=O)(=O)N2CCOCC2)cc1 [SC239]
IC50 (HEY ovarian cancer cells; [1]): 3 µM

C=C(C)CNC(=S)NNC(=O)CCn1c2ccccc2c2ccccc21 [SC217]
IC50 (HEY ovarian cancer cells; [1]): 4 µM

Cc1cccc(C(=O)NNC(=O)CSc2nc3ccccc3cc2C)c1 [SC213]
IC50 (HEY ovarian cancer cells; [1]): 12 µM

Cc1cccc(C(O)(C(=O)NNC(=O)/C(O)=C/C(=O)c2ccccc2)c2cccc(C)c2)c1 [SC230]
IC50 (HEY ovarian cancer cells; Homo sapiens): 3 µM

Cc1occc1C(=O)NNC(=O)c1ccccc1F [SC254]
IC50 (HEY ovarian cancer cells; [1]): 17 µM

Cc1ccc(C(=O)n2nnc3c(NNC(=O)COc4ccc(F)cc4)nc(C4CC4)nc32)cc1 [SC243]
IC50 (HEY ovarian cancer cells; [1]): 6 µM

COc1ccc(C(=O)NNC(=O)c2ccc3ccccc3c2O)cc1 [SC275]
IC50 (HEY ovarian cancer cells; [1]): 12 µM

O=C(CSc1nnc(-c2ccccc2O)o1)NNC(=O)Cc1ccccc1 [SC208]
IC50 (HEY ovarian cancer cells; [1]): 4 µM

O=C(CSc1nc(C2CC2)nc2sc3c(c12)CCCC3)NNC(=O)c1ccco1 [SC224]
IC50 (HEY ovarian cancer cells; [1]): 4 µM

O=C1c2c(O)ccc(O)c2C(=O)c2c(NCCNCCO)ccc(NCCNCCO)c21 [Mitoxantrone]
CC50 (MDA-MB-435 cells; Homo sapiens, MDA-MB-435): 4.5 ± 1.4 µM | IC80 (MDA-MB-435 cells; Homo sapiens): 7.3 ± 0.35 µM

O=C(NNC(=O)c1cccs1)c1ccccn1 [SC252]
IC50 (HEY ovarian cancer cells; [1]): 16 µM

O=C(CCc1ccccc1)NNC(=O)c1ccc2ccccc2c1O [SC270]
IC50 (HEY ovarian cancer cells; [1]): 5 µM

CCCn1c(=O)c(C(=O)NNC(=O)CC(=O)OCC)c(O)c2ccccc21 [SC202]
IC50 (HEY ovarian cancer cells; HEY ovarian cancer cells): 1 µM

CCc1cc2ccccc2nc1SCC(=O)NNC(=O)c1ccccc1 [SC211]
IC50 (HEY ovarian cancer cells; [1]): 10 µM

O=C(CSc1nnc2c3c4c(sc3ncn12)CCCC4)NNC(=O)c1ccco1 [SC247]
IC50 (HEY ovarian cancer cells; [1]): 14 µM

CC1=C(C)C2c3nnc(SCC(=O)NNC(=O)c4ccco4)n3C=NC2S1 (centres unmarked) [SC220]
IC50 (HEY ovarian cancer cells; [1]): 4 µM

CCCn1c(=O)c(C(=O)NNC(=O)c2ccc(C)cc2)c(O)c2ccccc21 [SC206]
IC50 (HEY ovarian cancer cells; HEY ovarian cancer cells): 1 µM

O=C(NNC(=O)c1cc2ccccc2oc1=O)c1ccc(S(=O)(=O)N2CCCCC2)cc1 [SC238]
IC50 (HEY ovarian cancer cells; [1]): 3 µM

CCn1c(=O)c(C(=O)NNC(=O)c2ccccc2[N+](=O)[O-])c(O)c2ccccc21 [SC214]
IC50 (HEY ovarian cancer cells; HEY ovarian cancer cells): 1 µM

O=C(NNC(=O)c1cccs1)c1ccc(O)c(O)c1 [SC257]
IC50 (HEY ovarian cancer cells; [1]): 2 µM

COc1ccc(C(=O)NNC(=O)c2cc3ccccc3cc2O)cc1 [SC276]
IC50 (HEY ovarian cancer cells; [1]): 13 µM

O=C(NNC(=O)c1cccc2ccccc12)c1cccs1 [SC261]
IC50 (HEY ovarian cancer cells; [1]): 11 µM

Cc1ccc(-n2c(SCC(=O)NNC(=O)c3ccccc3O)nnc2-c2ccccc2O)cc1 [SC245]
IC50 (HEY ovarian cancer cells; HEY ovarian cancer cells): 1 µM

O=C(NNC(=O)c1c(O)c2ccccc2[nH]c1=O)c1ccccc1 [SC268]
IC50 (HEY ovarian cancer cells; [1]): 10 µM

CCn1c(NNC=O)nc2c1c(=O)[nH]c(=O)n2C [SC253]
IC50 (HEY ovarian cancer cells; [1]): 12 µM

COc1ccccc1C(=O)NNC(=O)c1cc2ccccc2cc1O [SC274]
IC50 (HEY ovarian cancer cells; [1]): 11 µM

O=C(NNC1=NS(=O)(=O)c2ccccc21)c1ccncc1 [SC265]
IC50 (HEY ovarian cancer cells; [1]): 5 µM

O=C(CSc1nnc(-c2ccccc2O)n1Cc1ccccc1)NNC(=O)c1ccccc1O [SC246]
IC50 (HEY ovarian cancer cells; HEY ovarian cancer cells): 1 µM

O=C(COc1ccc2ccccc2c1)NNC(=O)c1ccccc1O [SC271]
IC50 (HEY ovarian cancer cells; [1]): 6 µM

O=C(COc1ccc2ccccc2c1)NNC(=O)c1cc2ccccc2cc1O [SC210]
IC50 (HEY ovarian cancer cells; HEY ovarian cancer cells): 1 µM

CCn1c(=O)c(C(=O)NNC(=O)c2cccc(C)c2)c(O)c2ccccc21 [SC207]
IC50 (HEY ovarian cancer cells; [1]): 6 µM

CCn1c(=O)c(C(=O)NNC(=O)c2cccc([N+](=O)[O-])c2)c(O)c2ccccc21 [SC218]
IC50 (HEY ovarian cancer cells; [1]): 4 µM

O=C(CSc1nnc(Cc2ccccc2)n1-c1cccc(Cl)c1)NNC(=O)c1ccccc1O [SC248]
IC50 (HEY ovarian cancer cells; [1]): 2 µM

O=C(Cc1ccccc1)NNC(=O)c1c(O)c2ccccc2[nH]c1=O [SC277]
IC50 (HEY ovarian cancer cells; [1]): 14 µM

O=C(CCl)NNc1nc(-c2ccccc2)c2cc(Cl)ccc2n1 [SC280]
IC50 (HEY ovarian cancer cells; [1]): 6 µM

COCc1c(C(=O)NNC(=O)c2ccccc2F)nnn1-c1nonc1N [SC204]
IC50 (HEY ovarian cancer cells; HEY ovarian cancer cells): 1 µM

O=C(O)CCCC(=O)NNC(=O)c1ccccc1Cl [SC259]
IC50 (HEY ovarian cancer cells; [1]): 18 µM

COc1ccc2nc(C)cc(SCC(=O)NNC(=O)COc3cccc4ccccc34)c2c1 [SC242]
IC50 (HEY ovarian cancer cells; [1]): 5 µM

O=C(NNC1=CS(=O)(=O)c2ccccc21)c1ccccc1 [SC264]
IC50 (HEY ovarian cancer cells; [1]): 5 µM

O=C(NNC(=O)c1c(O)c2ccccc2[nH]c1=O)c1ccccc1[N+](=O)[O-] [SC219]
IC50 (HEY ovarian cancer cells; [1]): 2 µM

Cc1cccc(C(=O)NNC(=O)CSc2nc(-c3ccccc3)nc3ccc(F)cc23)c1 [SC234]
IC50 (HEY ovarian cancer cells; [1]): 8 µM

O=C(NNC(=O)c1ccccc1O)c1cccs1 [SC255]
IC50 (HEY ovarian cancer cells; [1]): 14 µM

O=C(/C=C/NNC(=O)c1ccccc1O)c1ccccc1 [SC258]
IC50 (HEY ovarian cancer cells; [1]): 2 µM

CCC(=O)NNc1nc2c(c(=O)n1Cc1ccccc1)C1(CCCC1)Cc1ccccc1-2 [SC228]
IC50 (HEY ovarian cancer cells; [1]): 6 µM

CCn1c(=O)c(C(=O)NNC(=O)c2ccccc2F)c(O)c2ccccc21 [SC225]
IC50 (HEY ovarian cancer cells; [1]): 2 µM

CCCn1c(=O)c(C(=O)NNC(=O)c2ccccc2)c(O)c2ccccc21 [SC201]
IC50 (HEY ovarian cancer cells; [1]): 2 µM

N.N.[Cl][Pt][Cl] [Cisplatin]
CC50 (MDA-MB-435 cells): 39 ± 1.41 µM | CC80 (MDA-MB-435 cells): 71 ± 1.4 µM

COc1cccc(C(=O)NNC(=O)c2ccc3ccccc3c2O)c1 [SC272]
IC50 (HEY ovarian cancer cells; [1]): 7 µM

CC(=O)O[C@H]1C(=O)[C@@]2(C)[C@H]([C@H](OC(=O)c3ccccc3)[C@]3(O)C[C@H](OC(=O)[C@H](O)[C@@H](NC(=O)c4ccccc4)c4ccccc4)C(C)=C1C3(C)C)[C@]1(OC(C)=O)CO[C@@H]1C[C@@H]2O [Taxol]
CC50 (MDA-MB-435 cells; Homo sapiens, MDA-MB-435): 0.04 ± 0.003 µM | IC80 (MDA-MB-435 cells; Homo sapiens): 0.07 ± 0.01 µM

CCc1cc2ccc(C)cc2nc1SCC(=O)NNC(=O)c1ccco1 [SC227]
IC50 (HEY ovarian cancer cells; [1]): 6 µM

COc1ccc(C(=O)NNC(=O)CSc2ncnc3sc4c(c23)CCCC4)cc1 [SC226]
IC50 (HEY ovarian cancer cells; [1]): 5 µM

Cc1ccc(-n2c(SCC(=O)NNC(=O)Cc3ccccc3)nc3sc4c(c3c2=O)CCCC4)cc1 [SC249]
IC50 (HEY ovarian cancer cells; [1]): 2 µM

O=C(O)/C=C/C(=O)NNC(=O)c1cc(-c2ccccc2)[nH]n1 [SC263]
IC50 (HEY ovarian cancer cells; [1]): 5 µM

CCn1c(=O)c(C(=O)NNC(=O)Cc2ccccc2)c(O)c2ccccc21 [SC203]
IC50 (HEY ovarian cancer cells; [1]): 6 µM

O=C(NNC(=O)c1c(O)c2ccccc2[nH]c1=O)c1cccc([N+](=O)[O-])c1 [SC221]
IC50 (HEY ovarian cancer cells; [1]): 4 µM

COc1ccccc1C(=O)NNC(=O)c1ccccc1O [SC260]
IC50 (HEY ovarian cancer cells; [1]): 10 µM
